Experimental data reported in patent US6673364B1, “Liposome having an exchangeable component” (The University of British Columbia, priority 1995, dated 2004).

How the values were obtained:
[1] = Lipid mixing (FRET) assay, NaCl-induced fusion of DOPE:DODAC liposomes; details: DOPE:DODAC:PEG-lipid 83:15:2, 300 mM NaCl, POPC sink
Procedure: (§1) Lipid mixtures were prepared as described for NMR measurements. The resultant multilamellar vesicles (MLV) were frozen in liquid nitrogen and then thawed at 30° C. five times. Large unilamellar vesicles (LUV) were produced by extrusion of the frozen and thawed MLV ten times through 2 stacked polycarbonate filters of […] pore size at 30° C. and pressures of 200-500 psi (Hope, et al., Biochim. Biophys. Acta 812:55-65 (1985)).
Lipid mixing was measured by a modification of the fluorescence resonance energy transfer (FRET) assay of Struck, et al. (Biochemistry 20:4093-4099 (1981)). […] Fluorescence emission intensity was measured at 517 nm with excitation at 465 nm both before and after the addition of Triton X-100 (final concentration of 0. 5% or 1% when POPC sink was used). Data is presented as either uncorrected fluorescence intensity for short term assays (<1 hour) or as percentage fusion. […] Maximum fusion was determined using mock fused vesicles containing 0.125 mol % of each fluorescent probe. The percentage fusion was calculated as: [formula]
where F(t)=fluorescence intensity at time t; Fo=fluorescence intensity at zero time; FT=fluorescence intensity in the presence of Triton X-100. […]

[2] = 31P-NMR phase preference of equimolar DOPE:cholesterol mixtures with bilayer stabilizing component (BSC); assay type: physicochemical
Procedure: Lipid components were mixed in 1-2 ml of benzene:methanol (95:5, v/v) and then lyophilized for a minimum of 5 hours at a pressure of <60 millitorr using a Virtis lyophilizer equipped with a liquid N2 trap. Multilamellar vesicles (MLVs) were prepared by hydrating the dry lipid mixtures in 150 mM NaCl, buffered with 10 mM Hepes-NaOH, pH 7.4 (Hepes-buffered saline, HBS). Mixtures were vortexed to assist hydration. To produce large unilamellar vesicles (LUVs), MLVs were first frozen in liquid nitrogen and then thawed at 30° C. five times. LUVs were produced by extrusion of the frozen and thawed MLVs ten times through 2 stacked polycarbonate filters of 100 nm pore size at 30° C. and pressures of 200-500 psi (Hope, et al., Biochim. Biophys. Acta, 812:55-65 (1985)).
^31P-NMR spectra were obtained using a temperature controlled Bruker MSL200 spectrometer operating at 81 MHz. Free induction decays were accumulated for 2000 transients using a 4 μs, 90° pulse, 1 sec. interpulse delay, 20 KHz sweep width and Waltz decoupling. A 50 Hz line broadening was applied to the data prior to Fourier transformation. Samples were allowed to equilibrate at the indicated temperature for 30 minutes prior to data accumulation. Lipid concentrations of 30-70 mM were used.

[3] = Lipid mixing (FRET) assay, Ca2+-induced fusion of PE:PS LUVs
Procedure: as §1
Lipid mixing was measured by a modification of the fluorescence resonance energy transfer (FRET) assay of Struck, et al. (Biochemistry 20:4093-4099 (1981)). LUVs were prepared containing the fluorescent lipids, N-(7-nitro-2-1,3-benzoxadiazol-4-yl)-dioleoylphosphatidylethanolamine (NBD-PE) and N-(lissamine rhodamine B sulfonyl)-dipalmitoylphosphatidylethanolamine (Rh-PE) at 0.5 mol %. LUVs (50-60 μM) and a three-fold excess of unlabelled target vesicles were mixed in the fluorimeter at 37° C. for short term assays (≦1 hour), or in sealed cuvettes in a dark water bath at 37° C. for longer assays. For measurements of fusion after PEG-lipid transfer, an excess of liposomes prepared from 1-palmitoyl-2-oleoyl-phosphatidylcholine (POPC) was added as a sink for the PEG-lipid. Fluorescence emission intensity was measured at 517 nm with excitation at 465 nm both before and after the addition of Triton X-100 (final concentration of 0. 5% or 1% when POPC sink was used). Data is presented as either uncorrected fluorescence intensity for short term assays (<1 hour) or as percentage fusion. Light scattering controls were performed by replacing LUVs labelled with 0.5 mol % probes with unlabelled vesicles. Maximum fusion was determined using mock fused vesicles containing 0.125 mol % of each fluorescent probe. The percentage fusion was calculated as: [formula]
where F(t)=fluorescence intensity at time t; Fo=fluorescence intensity at zero time; FT=fluorescence intensity in the presence of Triton X-100. M and L represent the same measurements for the mock fused control and the light scattering control respectively.

[4] = PE:PS LUVs, 2 mol % PE-PEG2000, POPC sink

1-O-methyl-(poly(ethoxy)-O-succinyl-O-(egg)ceramide [egg ceramide-PEG2000]
time for 50% maximal fusion ([1]; 37° C.): over 20 hr
phase preference (31P-NMR) ([2]; DOPE:cholesterol:BSC 1:1:0.1, 0 to 60° C.): both bilayer and HII phase lipid are in evidence at most temperatures
phase preference (31P-NMR) ([2]; equimolar DOPE:cholesterol, BSC 20 mol % of phospholipid (1:1:0.25)): exclusively bilayer up to 60 °C

PEG2000 conjugated to dipalmitoylphosphatidylethanolamine [DPPE-PEG2000]
time at which fusion was essentially complete [3, 4]: 24 h
implied decrease in rate of transfer (acyl chains 14 to 16 carbons) ([3]; relative to DMPE-PEG2000): 30-40 fold

PEG2000 conjugated to dimyristoylphosphatidylethanolamine [DMPE-PEG2000]
extent of fusion at 21 hr [1]: < 20 % of maximum
time delay (lag phase) prior to fusion ([3]; 2, 3, 5 or 10 mol % PEG-lipid, 36fold excess POPC liposomes): increase in the time delay prior to fusion with increasing PEG-lipid concentration
concentration sufficient to eliminate (completely inhibit) Ca2+-induced fusion ([3]; PE:PS (1:1) LUVs, 5 mM Ca2+, 37° C.): 2 mol %
time at which fusion was essentially complete [3, 4]: 0.667 h

PEG2000 conjugated to distearoylphosphatidylethanolamine [DSPE-PEG2000]
level of fusion after 24 hours [3, 4]: 20 % of maximum
